The values below come from patent US8598159B2, “Therapeutic pyrazoloquinoline derivatives” (Dart Neuroscience (Cayman) Ltd., priority 2007, dated 2013).

For one test, the system named is GABAA receptors. Kind of test: Electrophysiology assay (two-electrode voltage clamp, Xenopus oocytes expressing GABAA receptors). Format: cell-based. The note with it: positive (Pos) or negative (Neg) modulation of current at GABA EC20, screening concentration of 10 μM. The protocol: The modulation of GABAA function is determined by changes in current as determined in an electrophysiology assay, as is detailed below.
mRNA was prepared from lyophilized plasmid pellets containing cDNA inserts encoding the specific GABAA receptor subunit. cDNAs encoding the α2, α3, and γ3 subunits were subcloned into pBluescript, SK^−. cDNAs encoding the a 1 and a 5 subunits were subcloned into prC while cDNA encoding the β2 subunit was subcloned into pcDNA1. The cDNA construct encoding the g 2s subunit is in the pGH19 expression construct. Overnight cultures of transformed DH5a bacterial cells were performed to grow sufficient quantities for maxiprep isolation of the plasmid cDNA. The resulting plasmid cDNA was linearized by digestion with an appropriate restriction enzyme that cleaves distal to the cDNA insert [XbaI (α1, β2), NotI (α3, γ2 s), SacII (α2), or ApaI (α5)]. Following digestion, plasmid cDNA was treated with proteinase K and extracted with phenol/chloroform/isoamyl alcohol, followed by ethanol precipitation. cDNA quality was assessed by agarose-gel electrophoresis (1.5% agarose gel). Samples were stored at −20° C. until use. In vitro transcription was performed with T7 RNA polymerase. mRNA was then stored at −80° C. until use. Plasmids were linearized with appropriate restriction enzymes before in vitro transcription using the Message Machine kit (Ambion, Austin, Tex.).
GABAA receptor expression in Xenopus oocytes: Following 45 min of 0.15% Tricaine anesthesia, an ovarian section containing the follicular oocytes was removed from the frog through a lateral abdominal incision. Oocytes were immediately placed in a calcium-free solution (NaCl 96 mM, MgCl2 1 mM, KCl 2 mM, Hepes 50 mM, pyruvate 2.5 mM, gentamycin 100 μg/mL, penicillin-streptomycin 50 U/mL, pH 7.4). Following 1.5-2 hour incubation in 0.2% collagenase (type II, Sigma Chemical Co., St. Louis, Mo.) at room temperature, individual Dumont stage V and VI oocytes were transferred to an incubator and maintained overnight in Barth's solution (NaCl 84 mM, NaHCO3 2.4 mM, MgSO4 0.82 mM, KCl 1 mM, Ca(NO3)2 0.33 mM, CaCl2 0.41 mM, Tris/HCl 7.5 mM, pyruvate 2.5 mM, gentamycin 50 μg/mL, penicillin-streptomycin, 100 units/mL, pH 7.4) at 18-20° C. and used for experiments 1-5 days post-injection. Oocytes were injected solution using an electronic microinjector (Drummond, Broomall, Pa.) with 50 nL of RNA containing 0.3-0.5 ng of each subunit RNA in a 1:1:2 ratio. The injected oocytes were used for experiments after 1-5 days of incubation in Barth's solution at 18-20° C.
Measurements of ion currents from oocytes expressing GABAA receptors were performed using a Warner two-electrode voltage-clamp amplifier (Warner Instruments, Inc., Foster City, Calif.) (Park-Chung, M. A., et al. (1999) Brain Res. 830: 72-87 incorporated herein in its entirety). Microelectrodes were fabricated from borosilicate glass capillaries with a programmed pipette puller (Sutter Instrument Co., CA). Microelectrode resistance was 1-3 MΩ when filled with 3 M KCl. The oocyte recording chamber was continuously perfused with ND-96 solution. Oocytes were clamped at a holding potential of −70 mV during data acquisition. The membrane current was filtered at 10 Hz and sampled at 100 Hz. Compounds were applied by a gravity-driven external perfusion system. The working volume of the recording chamber was […] and the rate of the perfusion was approximately […]. Compound application was 20-25 sec followed by a minimum of 150 sec wash. Data acquisition and external perfusion was computer controlled by custom-developed software. All experiments were performed at room temperature (22-24° C.). Dose-response data from each oocyte were fitted to the Hill equation by non-linear regression using the equation: IGABA=Emax/(1+(EC50/c)nH)
Emax is the maximum response, EC50 is the concentration producing 50% of the maximal response, nH is the Hill coefficient and c is the concentration of agonist. […]
For orientation: Two-electrode voltage clamp is typically applied to oocytes expressing channels or transporters.

Test [1] addresses GABAA central benzodiazepine receptor. Kind of test: Benzodiazepine binding assay ((3H)-flunitrazepam displacement). The note with it: read-out: BZ binding assay (IC50); rat whole brain (except cerebellum), 1 nM (3H)-flunitrazepam, 60 minutes at 25° C.; 3-concentration dose response curve.

In the case of `O=c1c2c[nH]c3ccc(N4CCNCC4)cc3c-2nn1-c1ccc(Cl)cc1` [7c, 2-(4′-Chlorophenyl)-8-piperazin-1-yl-2,5-dihydro-pyrazolo[4,3-c]quinolin-3-one], the “EP Result” value with GABAA receptors is listed as “Pos”. Besides, the IC50 – broadly, the concentration at which inhibition is half-maximal – in test [1] was less than 1 µM.
As for `CN1CCN(c2ccc3[nH]cc4c(=O)n(-c5ccc(Cl)cc5)nc-4c3c2)CC1` [7d, 2-(4′-Chlorophenyl)-8-(4-methylpiperazin-1-yl)-2,5-dihydro-pyrazolo[4,3-c]quinolin-3-one], the “EP Result” value with GABAA receptors is “Pos”. In addition, the IC50 in test [1] is less than 1 µM.
As to `COc1ccc(-n2nc3c4cc(N5CCNCC5)ccc4[nH]cc-3c2=O)cc1` [7e, 2-(4′-Methoxyphenyl)-8-piperazin-1-yl-2,5-dihydro-pyrazolo[4,3-c]quinolin-3-one], the “EP Result” value in the test with GABAA receptors was “Pos”. Besides, the concentration for half-maximal inhibition (IC50) in test [1] was less than 1 µM.
For `COc1ccc(-n2nc3c4cc(N5CCN(C)CC5)ccc4[nH]cc-3c2=O)cc1` [7f, 2-(4′-Methoxyphenyl)-8-(4-methylpiperazin-1-yl)-2,5-dihydro-pyrazolo[4,3-c]quinolin-3-one], the “EP Result” value in the test on GABAA receptors is “Pos”. For the same compound, the IC50 in test [1] is less than 1 µM.
The corresponding values for `O=c1c2c[nH]c3cc(N4CCNCC4)ccc3c-2nn1-c1ccccc1` [14a, 2-Phenyl-7-piperazin-1-yl-2,5-dihydro-pyrazolo[4,3-c]quinolin-3-one] are “Neg” and more than 1 µM.
Regarding `CN1CCN(c2ccc3c4nn(-c5ccccc5)c(=O)c-4c[nH]c3c2)CC1` [14b, 7-(4-Methylpiperazin-1-yl)-2-phenyl-2,5-dihydro-pyrazolo[4,3-c]quinolin-3-one], the “EP Result” value in the test on GABAA receptors is “Neg”. Also, the half-maximal inhibitory concentration (IC50) in test [1] was less than 1 µM.
In the case of `O=c1c2c[nH]c3cc(N4CCNCC4)ccc3c-2nn1-c1ccc(Cl)cc1` [14c, 2-(4′-Chlorophenyl)-7-piperazin-1-yl-2,5-dihydro-pyrazolo[4,3-c]quinolin-3-one], the “EP Result” value in the test on GABAA receptors is reported as “Neg”. The IC50 in test [1] is less than 1 µM.
Turning to `CN1CCN(c2ccc3c4nn(-c5ccc(Cl)cc5)c(=O)c-4c[nH]c3c2)CC1` [14d, 2-(4-Chlorophenyl)-7-(4-methylpiperazin-1-yl)-2,5-dihydro-pyrazolo[4,3-c]quinolin-3-one], the “EP Result” value in the test with GABAA receptors is “Neg”. Also, the half-maximal inhibitory concentration (IC50) in test [1] is less than 1 µM.
The corresponding values for `COc1ccc(-n2nc3c4ccc(N5CCNCC5)cc4[nH]cc-3c2=O)cc1` [14e, 2-(4-Methoxyphenyl)-7-piperazin-1-yl-2,5-dihydro-pyrazolo[4,3-c]quinolin-3-one] are “Neg” and less than 1 µM.
Turning to `COc1ccc(-n2nc3c4ccc(N5CCN(C)CC5)cc4[nH]cc-3c2=O)cc1` [14f, 2-(4-Methoxyphenyl)-7-(4-methylpiperazin-1-yl)-2,5-dihydro-pyrazolo[4,3-c]quinolin-3-one], in the test with GABAA receptors, the “EP Result” value is reported as “Neg”. In addition, the IC50 in test [1] is more than 1 µM.
`O=c1c2c[nH]c3cc(F)c(N4CCOCC4)cc3c-2nn1-c1ccccc1` [19a, 7-Fluoro-8-morpholin-4-yl-2-phenyl-2,5-dihydro-pyrazolo[4,3-c]quinolin-3-one]: the “EP Result” value in the test on GABAA receptors was “Pos”. For the same compound, the IC50 in test [1] is less than 0.001 µM.
On to `CC(C)N1CCN(c2ccc3[nH]cc4c(=O)n(-c5ccccc5)nc-4c3c2)CC1` [19b, 8-(4-Isopropylpiperazin-1-yl)-2-phenyl-2,5-dihydro-pyrazolo[4,3-c]quinolin-3-one], for which, in the test on GABAA receptors, the “EP Result” value is “Pos”. Besides, in test [1], the IC50 was less than 1 µM.
On to `O=c1c2c[nH]c3ccc(N4CCOCC4)cc3c-2nn1-c1ccccn1` [19c, 8-Morpholin-4-yl-2-pyridin-2-yl-2,5-dihydro-pyrazolo[4,3-c]quinolin-3-one], for which the “EP Result” value with GABAA receptors was “Neg”. Further, the IC50 in test [1] is less than 1 µM.
Consider `O=c1c2c[nH]c3ccc(N4CCOCC4)cc3c-2nn1-c1ccccc1` [19d, 8-Morpholin-4-yl-2-phenyl-2,5-dihydro-pyrazolo[4,3-c]quinolin-3-one], for which the “EP Result” value in the test on GABAA receptors was “Neg”. The IC50 in test [1] is less than 1 µM.
